Source: article PMC6219536, “Strategic single point mutation yields a solvent- and salt-stable transaminase from Virgibacillus sp. in soluble form” (Scientific Reports, 2018)

Columns and labels:
VbTA T16F = biological target: T1, VbTA T16F (Virgibacillus pantothenticus, UniProt A0A4P1LYG1); test: X-ray crystal structure, […] Å; assay type: binding; details: active site; non-covalent, no aldimine bond with K273
T1 construct: N-terminal His-tag (pET100-D-TOPO), codon-optimised, E. coli BL21(DE3), His-trap purified; native 448 residues (1350 bp); homodimer 104 kDa; residues 2-444 in crystal

[1] = biological target: VbTA T16F (transaminase from Virgibacillus sp. 21D, T16F mutant) (Virgibacillus sp. 21D); test: SEC; Superdex 200 (10/300) GL, 20 mM phosphate buffer pH 8.0, 150 mM NaCl, 0.2 mL/min, 4 °C, calibrated with MW markers

T1 sequence (A0A4P1LYG1 entry or part of it, stated change not applied): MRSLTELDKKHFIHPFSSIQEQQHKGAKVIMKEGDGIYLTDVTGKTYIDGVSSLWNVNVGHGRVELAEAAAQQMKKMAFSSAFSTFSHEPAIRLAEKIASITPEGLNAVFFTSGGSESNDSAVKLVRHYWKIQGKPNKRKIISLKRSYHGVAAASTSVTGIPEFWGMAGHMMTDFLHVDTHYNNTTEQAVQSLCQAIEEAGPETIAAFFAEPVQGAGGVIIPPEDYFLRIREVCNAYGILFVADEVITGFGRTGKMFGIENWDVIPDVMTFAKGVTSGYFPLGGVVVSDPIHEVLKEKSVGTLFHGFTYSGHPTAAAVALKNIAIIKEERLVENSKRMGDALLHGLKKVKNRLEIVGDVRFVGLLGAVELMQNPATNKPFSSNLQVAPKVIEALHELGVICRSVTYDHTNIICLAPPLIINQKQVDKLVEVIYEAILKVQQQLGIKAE

Row | Compound | X-ray crystal structure, 2.0 Å (VbTA T16F) | stoichiometry N [1]
1 | Cc1ncc(COP(=O)(O)O)c(C=O)c1O [PLP] | One molecule of PLP was bound at the active site | 
2 | VbTA T16F (transaminase from Virgibacillus sp. 21D, T16F mutant) (enzyme) |  | 2
